Experimental data published in patent US20220096650A1 (Glaxosmithkline Intellectual Property Development Limited, priority 2019, published 2022).

T1: cynomolgus PD-1 (cynomolgus)
T1 chain: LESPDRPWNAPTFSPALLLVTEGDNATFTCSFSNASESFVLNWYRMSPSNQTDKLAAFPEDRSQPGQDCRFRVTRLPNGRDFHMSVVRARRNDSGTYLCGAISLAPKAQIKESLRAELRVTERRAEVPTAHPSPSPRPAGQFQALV

B1: Pembrolizumab (antibody, human IgG4 S228P, kappa, V domains shown)
VH: QVQLVQSGVEVKKPGASVKVSCKASGYTFTNYYMYWVRQAPGQGLEWMGGINPSNGGTNFNEKFKNRVTLTTDSSTTTAYMELKSLQFDDTAVYYCARRDYRFDMGFDYWGQGTTVTVSS
VL: EIVLTQSPATLSLSPGERATLSCRASKGVSTSGYSYLHWYQQKPGQAPRLLIYLASYLESGVPARFSGSGSGTDFTLTISSLEPEDFAVYYCQHSRDLPLTFGGGTKVEIKR
notes: also called MK3475

Experiments:
[1] = test system: cells expressing human or cynomolgus PD-1; details: human versus cynomolgus PD-1; cited from earlier work
[2] = target: T1, cynomolgus PD-1; assay: kinetic analysis (bio-light interferometry)

Molecule | blocking of binding of human PD-1 ligands to cells expressing human or cynomolgus PD-1 [1] | Kd [2] [nM]
pembrolizumab: monoclonal IgG4 kappa antibody that binds the PD-1 receptor and blocks its interaction with PD-L1 and PD-L2 | comparable potency | 
B1 |  | 0.118
